{
  "source": "paper PMC10380810",
  "about": "“Nitazoxanide Inhibits the Bifunctional Enzyme GlG6PD::6PGL of Giardia lamblia: Biochemical and In Silico Characterization of a New Druggable Target” (International Journal of Molecular Sciences, 2023)",
  "molecular_target": "T1, GlG6PD::6PGL (fused bifunctional glucose-6-phosphate dehydrogenase::6-phosphogluconolactonase) (Giardia duodenalis, UniProt A8BWM5)",
  "T1 construct": "gene GL50803_008682; recombinant fused GlG6PD::6PGL; activity of the G6PD domain measured",
  "T1 sequence (A8BWM5 entry or part of it)": "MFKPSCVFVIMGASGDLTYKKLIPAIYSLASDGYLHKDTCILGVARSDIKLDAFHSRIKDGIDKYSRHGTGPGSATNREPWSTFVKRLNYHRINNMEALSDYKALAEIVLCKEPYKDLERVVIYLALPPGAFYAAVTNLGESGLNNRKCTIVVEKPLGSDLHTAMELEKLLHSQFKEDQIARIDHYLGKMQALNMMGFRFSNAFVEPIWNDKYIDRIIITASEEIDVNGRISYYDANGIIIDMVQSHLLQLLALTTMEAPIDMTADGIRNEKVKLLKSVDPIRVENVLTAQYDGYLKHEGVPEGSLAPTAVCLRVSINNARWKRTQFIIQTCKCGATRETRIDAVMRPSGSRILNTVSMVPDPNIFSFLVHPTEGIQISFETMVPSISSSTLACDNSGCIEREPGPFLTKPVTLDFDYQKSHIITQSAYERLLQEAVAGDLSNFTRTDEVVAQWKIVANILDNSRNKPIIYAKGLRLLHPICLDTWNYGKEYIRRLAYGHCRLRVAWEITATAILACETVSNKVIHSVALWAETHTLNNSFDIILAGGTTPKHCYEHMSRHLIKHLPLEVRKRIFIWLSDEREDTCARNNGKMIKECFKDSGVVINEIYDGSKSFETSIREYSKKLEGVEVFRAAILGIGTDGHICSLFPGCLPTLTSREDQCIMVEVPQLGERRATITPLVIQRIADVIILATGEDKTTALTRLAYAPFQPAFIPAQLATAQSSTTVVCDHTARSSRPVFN",
  "test": "residual G6PD activity at […] nm after […] h preincubation at […] °C with purified recombinant enzyme; k2 […] ^-1 s^-1; intrinsic and ANS fluorescence changes",
  "format": "biochemical",
  "data": [
    {"smiles": "CC(=O)Oc1ccccc1C(=O)Nc1ncc([N+](=O)[O-])s1", "note": "[NTZ, 2-acetyloloxy-N-(5-nitro-2thiazolyl)benzamide]", "values": [
      {"measurement": "IC50", "value": 40, "unit": "µM"}
    ]}
  ]
}
